Measured values published in article PMC11550998, “Novel 5-HT7 receptor antagonists modulate intestinal immune responses and reduce severity of colitis” (American Journal of Physiology - Gastrointestinal and Liver …, 2024).

What was measured:
[1] = Mouse in vivo pharmacokinetic studies; design: species or system C57BL/6 male mice
Method: Adult C57BL/6 male mice (2–4 mo old, body weight ranging from 20 to 25 g, Charles River Laboratories) were maintained under controlled temperature (23 ± 1°C) and lighting (lights on 6:00 AM–6:00 PM) with food and water provided ad libitum. Pharmacokinetic studies were performed either via intravenous bolus infusion or through oral gavage. Mice were administered each compound intravenously by tail vein injection (1 mg/kg) or orally through gavage (5 mg/kg). Serial blood samples were collected at 5, 15, and 30 min and 1, 2, 4, 8, and 24 h after intravenous administration, and at 15, 30 min, and 1, 2, 4, 8, and 24 h after oral gavage administration. All blood samples were centrifuged at 1,500 g for 5 min. Pharmacokinetic study procedures were approved by Temple University’s Institutional Animal Care and Usage Committee and were in accordance with National Institutes of Health (NIH) guidelines. For all in vivo efficacy studies, experiments were approved by the animal ethics committee of McMaster University and conducted under Canadian guidelines for animal research.
Plasma concentrations were determined using an LC-MS/MS method. Briefly, 100-µL acetonitrile with an internal standard solution (Diltiazem, 0.1 μg/mL) was added to 50-µL plasma or tissue homogenate. After being vortexed for 1 min, the mixture was centrifuged at 3,000 g for 5 min. LC-MS/MS analysis was carried out using a high-performance liquid chromatography system consisting of an Agilent 1100 system interfaced to an API4000 SCIEX triple-quadrupole tandem mass spectrometer (Applied Biosystems/MDS Sciex, Foster City, CA). MC-170073, MC-230078, MC-230079, and the internal standard were separated by using a Phenomenex (Torrance, CA) C18 column (2.0 × 50 mm). The mobile phase consisted of solvent A (0.1% formic acid in water) and solvent B (0.1% formic acid in acetonitrile). A linear gradient of solvent B from 5 to 95% was used. The detection and quantification of analytes were performed with the m/z transition 347/191 for MC-170073, MC-230078, and MC-230079, and m/z 415/178 for diltiazem.

[2] = test system: DSS-induced colitis; design: method as in PMID 23554310; conditions: acute DSS-induced colitis, vs controls; cited from earlier work
[3] = test system: 2,4,6-trinitrobenzenesulfonic acid (TNBS)-induced colitis; design: method as in PMID 23554310, PMID 27047383; conditions: cited from earlier work
[4] = test system: DSS exposure at 4% wt/vol; design: method as in PMID 25072499; conditions: DSS 4% wt/vol; untreated animals 33%; cited from earlier work
[5] = test system: naive CD4+ T cells expressing 5-HT7 receptors; design: method as in PMID 17158224; conditions: ex vivo; cited from earlier work
[6] = test system: colitis induced by DSS and TNBS; conditions: 5-HT4 receptor agonist; cited from earlier work
[7] = male, C57BL/6, plasma, IV, 1 mg/kg
[8] = male, C57BL/6, plasma, oral gavage, 5 mg/kg

CCC1(CC)C[C@H](CCN2CCN(c3ccc(O)cc3)CC2)OC1=O [MC-230079]
bioavailability ([1]; male, C57BL/6, mouse, plasma, oral, 5 mg/kg, 5 mg/kg oral vs 1 mg/kg IV, read-out: %F (oral bioavailability)): 10.8% | AUC [1, 7]: 97 ng·h/mL | Cmax [1, 7]: 148 ng/mL | Tmax [1, 7]: 10 min | clearance [1, 7]: 4.2 mL/min | half-life [1, 7]: 20.1 min | AUC [1, 8]: 52.5 ng·h/mL | Cmax [1, 8]: 57 ng/mL | Tmax [1, 8]: 30 min | half-life [1, 8]: 34.9 min | CL ([1]; oral gavage, 5 mg/kg): 2.07 L/h

CC1CCN(CC[C@H]2CCCN2S(=O)(=O)c2cccc(O)c2)CC1 [SB-269970, (R)-3-(2-(2-(4-methylpiperidin-1-yl)-ethyl)pyrrolidine-1-sulfonyl)phenol]
severity of colitis and production of proinflammatory cytokines [2]: significantly reduced | effect on TNBS-induced colitis [3]: only a minor impact | mortality rate [4]: > 60% | rapid T cell responses upon 5-HT exposure [5]: abrogated

[H]/N=C(/NCCCCC)N/N=C/c1c[nH]c2ccc(OC)cc12 [tegaserod]
effect on development of colitis [6]: protective actions
